# Test results: PubChem BioAssay AID1963983 (Molecular Pharmacology Branch, DTP, NCI, 2024)
# Test system: 186277-243-T-J2-PDC multi-cell spheroid viability
# Assay: Anticancer human tumor 186277-243-T-J2-PDC patient-derived colon adenocarcinoma cell line growth inhibition [PI3K]
# Settings: for IC50: curve of first compound; for viability, T/C: stronger effect = lower value
# Method in brief: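 Targeted small molecules plus PI3K inhibitors, half-log dose series from Cmax (default top 10 microM), were applied to heterotypic spheroids of cancer cells with HUVEC and MSCs. Viability indicated growth inhibition.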
# 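Note: spheroids exposed to compounds for seven days before viability reading.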
# 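Throughout, for viability, T/C: 100% = DMSO vehicle control viability.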
smiles,measurement,setting,value
CNC(=O)c1ccc(N2C(=S)N(c3ccc(C#N)c(C(F)(F)F)c3)C(=O)C2(C)C)cc1F + CC(Nc1ncnc2nc[nH]c12)c1cc2cccc(Cl)c2c(=O)n1-c1ccccc1,IC50,second compound 0.0316 µM,> 10 µM
same,IC50,second compound 0.1 µM,> 10 µM
same,IC50,second compound 0.316 µM,> 10 µM
same,IC50,second compound 1 µM,> 10 µM
same,IC50,second compound 3.16 µM,> 10 µM
same,IC50,second compound 10 µM,> 10 µM
same,"viability, T/C","second compound 0.0316 µM, first compound 0.0316 µM",100%
same,"viability, T/C","second compound 0.0316 µM, first compound 0.1 µM",117%
same,"viability, T/C","second compound 0.0316 µM, first compound 0.316 µM",90.9%
same,"viability, T/C","second compound 0.0316 µM, first compound 1 µM",90.1%
same,"viability, T/C","second compound 0.0316 µM, first compound 3.16 µM",101%
same,"viability, T/C","second compound 0.0316 µM, first compound 10 µM",92%
same,"viability, T/C","second compound 0.1 µM, first compound 0.0316 µM",99.7%
same,"viability, T/C","second compound 0.1 µM, first compound 0.1 µM",107%
same,"viability, T/C","second compound 0.1 µM, first compound 0.316 µM",88.6%
same,"viability, T/C","second compound 0.1 µM, first compound 1 µM",115%
same,"viability, T/C","second compound 0.1 µM, first compound 3.16 µM",115%
same,"viability, T/C","second compound 0.1 µM, first compound 10 µM",99.8%
same,"viability, T/C","second compound 0.316 µM, first compound 0.0316 µM",104%
same,"viability, T/C","second compound 0.316 µM, first compound 0.1 µM",119%
same,"viability, T/C","second compound 0.316 µM, first compound 0.316 µM",102%
same,"viability, T/C","second compound 0.316 µM, first compound 1 µM",104%
same,"viability, T/C","second compound 0.316 µM, first compound 3.16 µM",112%
same,"viability, T/C","second compound 0.316 µM, first compound 10 µM",113%
same,"viability, T/C","second compound 1 µM, first compound 0.0316 µM",89.3%
same,"viability, T/C","second compound 1 µM, first compound 0.1 µM",112%
same,"viability, T/C","second compound 1 µM, first compound 0.316 µM",117%
same,"viability, T/C","second compound 1 µM, first compound 1 µM",116%
same,"viability, T/C","second compound 1 µM, first compound 3.16 µM",106%
same,"viability, T/C","second compound 1 µM, first compound 10 µM",103%
same,"viability, T/C","second compound 3.16 µM, first compound 0.0316 µM",116%
same,"viability, T/C","second compound 3.16 µM, first compound 0.1 µM",128%
same,"viability, T/C","second compound 3.16 µM, first compound 0.316 µM",103%
same,"viability, T/C","second compound 3.16 µM, first compound 1 µM",106%
same,"viability, T/C","second compound 3.16 µM, first compound 3.16 µM",118%
same,"viability, T/C","second compound 3.16 µM, first compound 10 µM",92.9%
same,"viability, T/C","second compound 10 µM, first compound 0.0316 µM",90.5%
same,"viability, T/C","second compound 10 µM, first compound 0.1 µM",102%
same,"viability, T/C","second compound 10 µM, first compound 0.316 µM",103%
same,"viability, T/C","second compound 10 µM, first compound 1 µM",96.6%
same,"viability, T/C","second compound 10 µM, first compound 3.16 µM",92.1%
same,"viability, T/C","second compound 10 µM, first compound 10 µM",89.4%
